# Data: PubChem BioAssay AID330 (DTP/NCI, 2004)
# Inconclusive results and toxic doses are left out.
# System: P388 leukemia ip, CD2F1 mice, survival T/C
# Assay: NCI In Vivo Anticancer Drug Screen. Data for tumor model P388 Leukemia (intraperitoneal) in CD2F1 (CDF1) mice
# Settings: endpoint: median survival time, higher = longer survival
# Method in brief: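 Mice carrying the transplanted tumor received test compound or vehicle. Survival was recorded in each group, and the value is the treated-group measurement divided by that of the vehicle-treated control group.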
# [1] = dose: 50.0 mg/kg/injection, schedule: Q04DX003 (ip), vehicle: saline
# [2] = dose: 100.0 mg/kg/injection, schedule: Q04DX003 (ip), vehicle: saline with Tween-80
# [3] = dose: 200.0 mg/kg/injection, schedule: Q04DX003 (ip), vehicle: saline with Tween-80
# [4] = dose: 400.0 mg/kg/injection, schedule: Q04DX003 (ip), vehicle: saline with Tween-80
# [5] = dose: 100.0 mg/kg/injection, schedule: Q04DX003 (ip), vehicle: saline
# [6] = dose: 200.0 mg/kg/injection, schedule: Q04DX003 (ip), vehicle: saline
# [7] = dose: 60.0 mg/kg/injection, schedule: Q01DX005 (ip), vehicle: saline with Tween-80
# [8] = dose: 120.0 mg/kg/injection, schedule: Q01DX005 (ip), vehicle: saline with Tween-80
# [9] = dose: 240.0 mg/kg/injection, schedule: Q01DX005 (ip), vehicle: saline with Tween-80
# [10] = dose: 60.0 mg/kg/injection, schedule: Q01DX005 (ip), vehicle: Klucel (hydroxypropylcellulose) (HPC)
# [11] = dose: 120.0 mg/kg/injection, schedule: Q01DX005 (ip), vehicle: Klucel (hydroxypropylcellulose) (HPC)
# [12] = dose: 240.0 mg/kg/injection, schedule: Q01DX005 (ip), vehicle: Klucel (hydroxypropylcellulose) (HPC)
# [13] = dose: 50.0 mg/kg/injection, schedule: Q01DX005 (ip), vehicle: Klucel (hydroxypropylcellulose) (HPC)
# [14] = dose: 100.0 mg/kg/injection, schedule: Q01DX005 (ip), vehicle: Klucel (hydroxypropylcellulose) (HPC)
# [15] = dose: 200.0 mg/kg/injection, schedule: Q01DX005 (ip), vehicle: Klucel (hydroxypropylcellulose) (HPC)
# [16] = dose: 50.0 mg/kg/injection, schedule: Q01DX009 (ip), vehicle: Klucel (hydroxypropylcellulose) (HPC)
# [17] = dose: 100.0 mg/kg/injection, schedule: Q01DX009 (ip), vehicle: Klucel (hydroxypropylcellulose) (HPC)
# [18] = dose: 200.0 mg/kg/injection, schedule: Q01DX009 (ip), vehicle: Klucel (hydroxypropylcellulose) (HPC)
structure (smiles),measurement,setting,value
Cc1nc(C(N)=O)c(=O)[nH]c1C,T/C,"dose: 33.0 mg/kg/injection, schedule: Q04DX003 (ip), vehicle: saline",100 % of control
same,T/C,[1],100 % of control
same,T/C,"dose: 75.0 mg/kg/injection, schedule: Q04DX003 (ip), vehicle: saline",100 % of control
same,T/C,[2],100 % of control
same,T/C,[3],106 % of control
same,T/C,[4],106 % of control
CC1(C)N=C(N)N=C(N)N1c1ccc(CCc2ccccc2)cc1,T/C,"dose: 37.5 mg/kg/injection, schedule: Q04DX003 (ip), vehicle: saline with Tween-80",87 % of control
same,T/C,"dose: 75.0 mg/kg/injection, schedule: Q04DX003 (ip), vehicle: saline with Tween-80",100 % of control
same,T/C,[5],120 % of control
same,T/C,[6],100 % of control
NC(CCC(=O)OCc1ccccc1)C(=O)OCc1ccccc1 (stereo not drawn),T/C,[1],100 % of control
same,T/C,[5],104 % of control
same,T/C,[6],100 % of control
CC(C)(Br)C(=O)/C=C/c1ccc(Cl)cc1,T/C,[7],108 % of control
same,T/C,[8],104 % of control
same,T/C,[9],114 % of control
O=C(O)Cc1cn2cccnc2n1,T/C,"dose: 50.0 mg/kg/injection, schedule: Q04DX002 (ip), vehicle: saline with Tween-80",115 % of control
same,T/C,"dose: 100.0 mg/kg/injection, schedule: Q04DX002 (ip), vehicle: saline with Tween-80",99 % of control
same,T/C,"dose: 200.0 mg/kg/injection, schedule: Q04DX002 (ip), vehicle: saline with Tween-80",96 % of control
CC(=O)OC1CC(C(=O)c2ccccc2)N2N=CN(c3ccccc3)C12 (stereo not drawn),T/C,[10],103 % of control
same,T/C,[11],102 % of control
same,T/C,[12],104 % of control
O=C1C2CCCC1C(c1ccccc1Cl)NC2c1ccccc1Cl (stereo not drawn),T/C,[5],89 % of control
same,T/C,[6],96 % of control
same,T/C,"dose: 400.0 mg/kg/injection, schedule: Q04DX003 (ip), vehicle: saline",94 % of control
c1ccc(-c2ccc[n+](CC[n+]3cccc(-c4ccccn4)c3)c2)nc1,T/C,[7],104 % of control
same,T/C,[8],100 % of control
CCCN=C(N)c1ccc(N=C(N)c2ccc(N=C(N)c3ccc(C(N)=NCCC)cc3)cc2)cc1,T/C,"dose: 0.08 mg/kg/injection, schedule: Q01DX009 (ip), vehicle: saline",100 % of control
same,T/C,"dose: 0.15 mg/kg/injection, schedule: Q01DX009 (ip), vehicle: saline",100 % of control
same,T/C,"dose: 0.3 mg/kg/injection, schedule: Q01DX009 (ip), vehicle: saline",110 % of control
same,T/C,"dose: 1.25 mg/kg/injection, schedule: Q01DX009 (ip), vehicle: saline",154 % of control
same,T/C,"dose: 2.5 mg/kg/injection, schedule: Q01DX009 (ip), vehicle: saline",118 % of control
same,T/C,"dose: 5.0 mg/kg/injection, schedule: Q04DX003 (ip), vehicle: saline with Tween-80",95 % of control
same,T/C,"dose: 10.0 mg/kg/injection, schedule: Q01DX009 (ip), vehicle: saline",150 % of control
same,T/C,"dose: 10.0 mg/kg/injection, schedule: Q04DX003 (ip), vehicle: saline with Tween-80",100 % of control
same,T/C,"dose: 15.0 mg/kg/injection, schedule: Q01DX009 (ip), vehicle: saline",172 % of control
same,T/C,"dose: 20.0 mg/kg/injection, schedule: Q01DX009 (ip), vehicle: saline with Tween-80",200 % of control
same,T/C,"dose: 20.0 mg/kg/injection, schedule: Q04DX003 (ip), vehicle: saline with Tween-80",100 % of control
CC(=O)c1c(-c2nc(=S)[nH]c(C)c2C(C)=O)nc(=S)[nH]c1C,T/C,[10],106 % of control
same,T/C,[11],100 % of control
same,T/C,[12],90 % of control
O=C(CNC(=O)Nc1ccc(Cl)c(Cl)c1)N/N=C/C=C/c1ccccc1,T/C,"dose: 15.0 mg/kg/injection, schedule: Q01DX005 (ip), vehicle: saline with Tween-80",96 % of control
same,T/C,"dose: 30.0 mg/kg/injection, schedule: Q01DX005 (ip), vehicle: saline with Tween-80",87 % of control
COc1ccc(OC)c2cc3c(cc12)C(=O)c1ccccc1C3=O,T/C,[13],87 % of control
same,T/C,[14],88 % of control
same,T/C,[15],91 % of control
NC(N)=NS(=O)(=O)c1ccc([N+](=O)[O-])cc1,T/C,"dose: 12.5 mg/kg/injection, schedule: Q01DX009 (ip), vehicle: saline with Tween-80",103 % of control
same,T/C,"dose: 25.0 mg/kg/injection, schedule: Q01DX009 (ip), vehicle: saline with Tween-80",107 % of control
same,T/C,"dose: 50.0 mg/kg/injection, schedule: Q01DX009 (ip), vehicle: saline with Tween-80",111 % of control
Clc1ccccc1CN1COc2c(ccc3ccccc23)C1,T/C,"dose: 100.0 mg/kg/injection, schedule: Q04DX003 (ip), vehicle: Klucel (hydroxypropylcellulose) (HPC)",95 % of control
same,T/C,"dose: 200.0 mg/kg/injection, schedule: Q04DX003 (ip), vehicle: Klucel (hydroxypropylcellulose) (HPC)",100 % of control
same,T/C,"dose: 400.0 mg/kg/injection, schedule: Q04DX003 (ip), vehicle: Klucel (hydroxypropylcellulose) (HPC)",104 % of control
COC(=O)C(Cc1ccccc1)NC(=O)C(Cc1c[nH]c2ccccc12)NC(=O)OC(C)(C)C (stereo not drawn),T/C,[16],95 % of control
same,T/C,[17],87 % of control
same,T/C,[18],108 % of control
COc1cc(O)c2c(=O)c3c(O)c(OC4OC(COC5OC(C)C(OC(C)=O)C(O)C5O)C(O)C(O)C4O)ccc3oc2c1 (stereo not drawn),T/C,"dose: 1.5 mg/kg/injection, schedule: Q01DX009 (ip), vehicle: saline",100 % of control
same,T/C,"dose: 3.0 mg/kg/injection, schedule: Q01DX009 (ip), vehicle: saline",100 % of control
same,T/C,"dose: 6.0 mg/kg/injection, schedule: Q01DX009 (ip), vehicle: saline",107 % of control
same,T/C,"dose: 12.0 mg/kg/injection, schedule: Q01DX009 (ip), vehicle: saline",103 % of control
CN(C)c1ccc(NN=O)nc1,T/C,"dose: 1.56 mg/kg/injection, schedule: Q01DX009 (ip), vehicle: water",122 % of control
same,T/C,"dose: 6.25 mg/kg/injection, schedule: Q01DX009 (ip), vehicle: water",150 % of control
same,T/C,"dose: 12.5 mg/kg/injection, schedule: Q01DX009 (ip), vehicle: water",110 % of control
O=C(O)C1OC(N(O)c2ccc(Oc3ccc(Cl)cc3)cc2)C(O)C(O)C1O (stereo not drawn),T/C,[7],106 % of control
same,T/C,[8],100 % of control
same,T/C,[9],100 % of control
Clc1cccc(-c2nc3ccccc3c3ccccc23)c1,T/C,[2],100 % of control
same,T/C,[3],90 % of control
same,T/C,[4],90 % of control
C=CCOc1cc(=O)[nH]c2ccccc12,T/C,[10],100 % of control
same,T/C,[11],97 % of control
same,T/C,[12],91 % of control
Cc1ccc(C)c(NC(=O)Nc2ccc(C(=O)O)c(O)c2)c1,T/C,[16],101 % of control
same,T/C,[17],101 % of control
same,T/C,[18],114 % of control
Nc1ccc(C(=O)Nc2ccc(NC(=O)c3ccco3)c(O)c2)cc1,T/C,[7],94 % of control
same,T/C,[8],91 % of control
same,T/C,[9],89 % of control
CCCCCC(CC(=O)O)C(N)C(=O)O (stereo not drawn),T/C,[16],104 % of control
same,T/C,[17],103 % of control
same,T/C,[18],99 % of control
O=C1c2ccccc2C(O)N1CCc1c[nH]c2ccccc12 (stereo not drawn),T/C,[13],93 % of control
same,T/C,[14],95 % of control
same,T/C,[15],91 % of control
O=[N+]([O-])c1ccc2[nH]c3cnccc3c2c1,T/C,"dose: 12.5 mg/kg/injection, schedule: Q01DX009 (ip), vehicle: other",106 % of control
same,T/C,"dose: 25.0 mg/kg/injection, schedule: Q01DX009 (ip), vehicle: other",105 % of control
same,T/C,"dose: 50.0 mg/kg/injection, schedule: Q01DX009 (ip), vehicle: other",108 % of control
same,T/C,"dose: 100.0 mg/kg/injection, schedule: Q01DX009 (ip), vehicle: other",107 % of control
Cc1c2sc3ccccc3[nH]c2nc2[nH]c3ccccc3sc12,T/C,"dose: 50.0 mg/kg/injection, schedule: Q01DX005 (ip), vehicle: saline with Tween-80",108 % of control
same,T/C,"dose: 100.0 mg/kg/injection, schedule: Q01DX005 (ip), vehicle: saline with Tween-80",116 % of control
same,T/C,"dose: 200.0 mg/kg/injection, schedule: Q01DX005 (ip), vehicle: saline with Tween-80",108 % of control
Cc1cc2c(cc1C)NC1=C(N2)OC(c2c[nH]c3ccc(COc4ccccc4)cc23)C1=O (stereo not drawn),T/C,[7],92 % of control
same,T/C,[8],90 % of control
same,T/C,[9],92 % of control
